Here are results for 5 molecules from publication PMC11944514, “Dengue Virus Inhibitors as Potential Broad-Spectrum Flavivirus Inhibitors” (Pharmaceuticals, 2025).

One series has as its system DENV-2-NGC. Also on record: method as in PMID 17360676. The following applies: Vero E6 cells; read-out: EC50, inhibition of DENV-2-NGC activity; cited from earlier work.
The test system of the next series is ZIKV-Nanoluc. Put plainly: microbe, parasite or virus in culture. The series is classed as cell-based. The following applies: for EC50: Zika virus, Vero C1008, read-out: ZIKV EC50, μM.
The test system of another series is DENV2-Nanoluc replicon. It is filed as cell-based.
The subject of another series is ZIKV-Nanoluc replicon. It is filed as cell-based.
A further series deals with KUNV-Nanoluc replicon. It is filed as cell-based.
Series [1] in a line: xCELLigence real-time cytotoxicity assay (RTCA), CC50. The series is classed as cell-based. The following applies: African green monkey, Vero E6 cells, 24 h of exposure. As to the method:
As compounds C1, C2, and C3 were relatively toxic (Figure 2A), we determined the selectivity index (SI) of the identified potential broad-spectrum flavivirus inhibitors. As the WST-1 assay tends to underestimate the toxic effect and is unable to detect cytostatic effects, the CC50 of the perspective compounds was measured using a more sensitive xCELLigence real-time cytotoxicity assay (RTCA). […] The full xCELLigence RTCA data are provided in the Supporting Information section (Figures S2 and S3). Thereafter, for each compound, the SI was calculated as a ratio of the CC50 of a compound against its EC50 [36].
Vero E6 cells were seeded on a 16-well E-plate (ACEA Biosciences, Inc., San Diego, CA, USA ) at a density of 5 × 10^3 cells/well and allowed to adhere overnight. On the next day, the studied compounds were added at the final concentrations ranging from 0.078 μM to 5 μM with a two-fold dilution step for compounds C1, C2, and C3, and at the final concentrations ranging from 1.56 μM to 50 μM with a two-fold dilution step for compounds C5 and C6; 0.01% DMSO was used as a solvent control. The cells were incubated for 5 days, and the signals between the electrodes (impedance) were recorded using an RTCA xCELLigence machine (Agilent Technologies, Inc., Santa Clara, CA, USA). […] The CC50 values were calculated using GraphPad Prism 10.0 for Windows, GraphPad Software, v. 10.4.1, Boston, MA, USA, www.graphpad.com (accessed on 16 February 2025).

Another series has as its system KUNV-Nanoluc. Nature of the series: organism not typed. The following applies: for EC50: Vero C1008, read-out: KUNV EC50, μM. The series is classed as cell-based.
The test system of series [2] is U2OS cells. Also on record: method as in PMID 31609477. The settings on record: previously reported; read-out: 50% cytotoxic concentration (CC50) against U2OS cells; cited from earlier work.
A further series concerns TBEV-Nanoluc. Put plainly: microbe, parasite or virus in culture. It is filed as cell-based.
The test system of the next series is DENV2-Nanoluc. Nature of the series: microbe, parasite or virus in culture. The series is classed as cell-based. The following applies: for EC50: DENV2, Vero C1008, read-out: DENV2 EC50, μM.
Series [3] relates to U2OS cells. Put plainly: WST-1 cell viability assay, U2OS. It is filed as cell-based, human. The settings on record: 48 h of exposure. As to the method: (§1) Vero E6 or U2OS cells were seeded on the 96-well plate at a density of 1 × 10^4 cells/well and were allowed to adhere overnight. Next day, the cells were treated with the studied compounds at concentrations ranging from 1 to 100 μM with a ten-fold dilution step. As a solvent control, 0.01% DMSO (Sigma, St. Louis, MO, USA) was used. After 48 h of exposure, 10 μL of WST-1 (10 mg/mL) cell proliferation reagent (Roche, Cat. No. 11644807001) was added to each well, and plates were incubated at 37 °C, 5% CO2 for 2 h. The optical density was then measured at 450 nm using an Epoch Microplate Spectrophotometer (BioTek Instruments, Inc., Winooski, VT, USA). Four independent experiments were carried out in triplicates.
In general terms: Tetrazolium assays rely on reduction of a dye to a coloured formazan, in cell work by metabolically active cells.

The test system of another series is TBEV-Nanoluc replicon. The series is classed as cell-based.
The subject of series [4] is DENV2. Set-up: method as in PMID 25878766. The following applies: BHK-21 cells; read-out: EC50, inhibition of DENV2 infection; cited from earlier work.
Another series has as its system Vero E6 cells. Put plainly: WST-1 cell viability assay, Vero E6. The series is classed as cell-based, African green monkey. The following applies: Vero E6, 48 h of exposure. Here is the method:
The cytotoxic effect of all studied compounds was assessed using the WST-1 assay after 48 h of exposure. […] This observation can be explained by the fact that the compound C8 is resazurin, phenoxazine dye, also known as Alamar Blue, which is subject to irreversible metabolic reduction to the resorufin by live mammalian cells. Thus, the cytotoxic effect of this compound cannot be assessed by the WST-1 assay correctly. Therefore, the C8 cytotoxicity was further assessed using the resazurin cell viability assay. This assay allowed us to avoid the interference between the tested compound and dye and obtain more reliable results for colored compounds.
as §1

Series [5] has as its system Vero E6. The settings on record: cited from earlier work.
In a further series the test system is ZIKV. Also on record: method as in PMID 29642580. The following applies: reference inhibitor compound; cited from earlier work.
In the next series the test system is TBEV. The settings on record: cited from earlier work.
A further series concerns KUNV. The following applies: cited from earlier work.
The subject of series [6] is Vero E6. Set-up: method as in PMID 20837762. The following applies: reference inhibitor compound; cited from earlier work.
Series [7] deals with DENV2. Also on record: method as in PMID 20837762. The settings on record: reference inhibitor compound; cited from earlier work.
In series [8] the test system is New Guinea C strain of DENV2. The following applies: human Huh7 cells infected for 48 h, Renilla luciferase assay; read-out: EC50 against the New Guinea C strain of DENV2; cited from earlier work.

pEC50: −log10 of the molar value. Read-outs that look alike come from different tables or passages of the source.

The pEC50 is −log10 of the EC50, conventionally taken in molar units. In general, EC50 refers to the concentration giving half of the maximal effect.

On to `COc1c(C)c2c(c(O)c1CC=C(C)CCC(=O)O)C(=O)OC2` [Compound C3, 6-(4-hydroxy-6-methoxy-7-methyl-3-oxo-1,3-dihydro-2-benzofuran-5-yl)-4-methylhex-4-enoic acid], for which, in the series with DENV-2-NGC, the pEC50 is 5.24. The “antiviral effect against ZIKV-Nanoluc (initial screening)” value in the series on ZIKV-Nanoluc was “only demonstrated a statistically significant antiviral effect at the maximum tested concentration”. Besides, the EC50 in the series with ZIKV-Nanoluc was determined as 0.53 µM; in the series with KUNV-Nanoluc, 0.21 µM; in the series on TBEV-Nanoluc (Tick-borne encephalitis virus, Vero C1008, read-out: TBEV EC50, μM), 0.61 µM; in the series with DENV2-Nanoluc (Dengue virus) it was 0.12 µM. In addition, the “antiviral effect against DENV2-Nanoluc replicon” value in the series on DENV2-Nanoluc replicon is reported as “no effect at the maximum non-toxic concentration”. In the series with ZIKV-Nanoluc replicon, the “antiviral effect against ZIKV-Nanoluc replicon” value is on record as “no effect at the maximum non-toxic concentration”. Further, in the series on KUNV-Nanoluc replicon, the “antiviral effect against KUNV-Nanoluc replicon” value is “no effect at the maximum non-toxic concentration”. Moreover, the CC50 at 24 h in series [1] is > 5 µM. The “antiviral effect against KUNV-Nanoluc (initial screening)” value with KUNV-Nanoluc is listed as “apparent dose-dependent antiviral effect”. The CC50 in the series with U2OS cells [2] is 1660 nM. Also, the “antiviral effect against TBEV-Nanoluc (initial screening)” value in the series on TBEV-Nanoluc was “clear dose-dependent antiviral effect”. For the same molecule, the “antiviral effect against DENV2-Nanoluc (initial screening)” value in the series with DENV2-Nanoluc is “apparent dose-dependent antiviral effects”. In the series on U2OS cells [3], the “cytotoxic effect (WST-1 assay)” value is “extremely toxic for the U2OS cell line even at the lowest micromolar concentration”. In addition, the “antiviral effect against TBEV-Nanoluc replicon” value with TBEV-Nanoluc replicon is listed as “no effect at the maximum non-toxic concentration”.

On to `CN1C(=O)C2(CC(=O)Nc3c2cnn3Cc2ccc(Cl)cc2)c2cc(Cl)ccc21` (centres unmarked) [Compound C6, 5-chloro-1′-[(4-chlorophenyl)methyl]-1-methyl-1,1′,2,5′,6′,7′-hexahydrospiro[indole-3,4′-pyrazolo[3,4-b]pyridine]-2,6′-dione], for which, in the series with ZIKV-Nanoluc, the “antiviral effect against ZIKV-Nanoluc (initial screening)” value is “partially inhibited the virus activity at this concentration” and the EC50 turned out to be 23.9 µM. Besides, in the series on DENV2-Nanoluc replicon, the “antiviral effect against DENV2-Nanoluc replicon” value was “most active against all the studied viral replicons”. Further, the “antiviral effect against ZIKV-Nanoluc replicon” value in the series with ZIKV-Nanoluc replicon is given as “most active against all the studied viral replicons”. Moreover, the “antiviral effect against KUNV-Nanoluc replicon” value with KUNV-Nanoluc replicon is on record as “most active against all the studied viral replicons”. Also, the CC50 at 24 h in series [1] is > 50 µM. In addition, in the series on KUNV-Nanoluc, the “antiviral effect against KUNV-Nanoluc (initial screening)” value is listed as “decreased the KUNV-Nanoluc activity only at the maximum tested concentrations” and the EC50 was found to be 20.6 µM. Besides, the “antiviral effect against TBEV-Nanoluc (initial screening)” value in the series with TBEV-Nanoluc is recorded as “clear dose-dependent antiviral effect”. Moreover, the pEC50 in the series on TBEV-Nanoluc (read-out: TBEV EC50) is 4.86. The “antiviral effect against DENV2-Nanoluc (initial screening)” value in the series with DENV2-Nanoluc is on record as “apparent dose-dependent antiviral effects”. The “antiviral effect against TBEV-Nanoluc replicon” value with TBEV-Nanoluc replicon is “most active against all the studied viral replicons”. Also, the pEC50 in the series on DENV2 [4] is 8.22. Besides, in the series with Vero E6 cells, the “cytotoxic effect (WST-1 assay)” value is “no cytotoxic effect at the maximal tested concentration”.

For the molecule `CCOC(=O)c1c(CSc2ccccc2)n(C)c2cc(Br)c(O)c(CN(C)C)c12` [Arbidol], the CC50 in the series with Vero E6 [5] was 89700 nM. Besides, the pEC50 with ZIKV was 4.92; in the series on TBEV it was 4.73; with KUNV it was 4.73.

As to `COc1cccc2c1C(=O)c1c(O)c3c(c(O)c1C2=O)C[C@@](O)(C(=O)CO)C[C@@H]3O[C@H]1C[C@H](N)[C@H](O)[C@H](C)O1` [Doxorubicin], the CC50 with Vero E6 [6] is 24 µM. Moreover, in the series on DENV2 [7], the pEC50 was 5.92.

Take `CC(C)(C)Oc1cccc2nc(N)nc(N)c12` [Compound C2, 5-(tert-butoxy)quinazoline-2,4-diamine]: in the series with ZIKV-Nanoluc, the “antiviral effect against ZIKV-Nanoluc (initial screening)” value is listed as “completely inhibited the ZIKV-Nanoluc replication at the maximum tested concentration”. Moreover, in the series on ZIKV-Nanoluc, the “concentration at which a statistically significant antiviral effect appeared (ZIKV-Nanoluc)” value was 0.2 µM. The EC50 in the series with ZIKV-Nanoluc is 0.48 µM; with KUNV-Nanoluc it was 0.26 µM; in the series on DENV2-Nanoluc (Dengue virus), ~0.13 µM. In addition, the pEC50 in series [8] is 8.55; in the series with DENV2-Nanoluc (Dengue virus, DENV2, Vero C1008, read-out: EC50 against DENV2) it was ~6.89. The molecule also showed a CC50 at 24 h in [1] of 0.31 µM. Also, the “antiviral effect against KUNV-Nanoluc (initial screening)” value with KUNV-Nanoluc is reported as “decreased the KUNV-Nanoluc activity only at the maximum tested concentrations”. Besides, the “antiviral effect against TBEV-Nanoluc (initial screening)” value in the series with TBEV-Nanoluc was “clear dose-dependent antiviral effect”. Besides, the “antiviral effect against DENV2-Nanoluc (initial screening)” value with DENV2-Nanoluc is given as “apparent dose-dependent antiviral effects”.
